# Measurements as given in ChEMBL document CHEMBL5465560, “Selectivity Literature for EUbOPEN Chemogenomic Library” (2024).
# Experiments:
# [1] = biological target: SRSF protein kinase 3 (Homo sapiens) (UniProt Q9UPE1); assay: Selectivity interaction (ProQinase) EUB0000171b SRPK3
# [2] = biological target: Casein kinase II subunit alpha (Homo sapiens, UniProt P68400); assay: Selectivity interaction (KinomeScan (DiscoverX)) EUB0000666a CSNK2A1; conditions: at 10 µM
# [3] = biological target: T1, Serine/threonine-protein kinase ULK1 (Homo sapiens) (UniProt O75385); assay: Selectivity interaction (ActivX KiNativ screen (kinase selectivity in THP-1 cell lysates)) EUB0000639a ULK1; assay type: subcellular; conditions: lysate, at 0.01 µM
# T1 sequence (whole entry): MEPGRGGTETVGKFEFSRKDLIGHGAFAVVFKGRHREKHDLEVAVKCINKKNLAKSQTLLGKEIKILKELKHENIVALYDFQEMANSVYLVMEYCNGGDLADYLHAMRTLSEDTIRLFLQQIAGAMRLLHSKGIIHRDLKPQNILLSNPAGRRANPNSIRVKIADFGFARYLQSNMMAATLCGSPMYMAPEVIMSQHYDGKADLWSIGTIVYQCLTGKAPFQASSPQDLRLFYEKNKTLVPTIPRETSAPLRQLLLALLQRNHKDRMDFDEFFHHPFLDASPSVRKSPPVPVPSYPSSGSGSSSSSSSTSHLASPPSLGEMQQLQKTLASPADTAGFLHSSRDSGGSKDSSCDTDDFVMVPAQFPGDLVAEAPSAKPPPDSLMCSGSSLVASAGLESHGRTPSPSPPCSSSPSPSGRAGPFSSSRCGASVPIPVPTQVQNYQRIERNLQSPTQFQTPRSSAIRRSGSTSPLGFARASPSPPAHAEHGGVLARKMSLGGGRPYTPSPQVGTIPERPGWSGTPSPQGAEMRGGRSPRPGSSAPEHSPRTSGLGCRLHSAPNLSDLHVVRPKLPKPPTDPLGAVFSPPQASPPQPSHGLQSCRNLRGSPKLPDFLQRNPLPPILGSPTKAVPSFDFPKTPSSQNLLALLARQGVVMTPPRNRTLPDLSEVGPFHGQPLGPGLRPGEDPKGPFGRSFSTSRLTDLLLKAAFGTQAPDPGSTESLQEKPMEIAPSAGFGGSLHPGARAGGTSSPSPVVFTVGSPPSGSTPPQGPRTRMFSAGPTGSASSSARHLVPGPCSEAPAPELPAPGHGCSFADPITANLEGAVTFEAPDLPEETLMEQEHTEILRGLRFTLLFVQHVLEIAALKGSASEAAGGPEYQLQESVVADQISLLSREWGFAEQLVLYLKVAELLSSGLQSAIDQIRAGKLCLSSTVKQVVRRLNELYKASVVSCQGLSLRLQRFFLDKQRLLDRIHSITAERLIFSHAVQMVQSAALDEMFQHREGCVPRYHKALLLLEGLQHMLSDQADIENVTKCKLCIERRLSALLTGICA
# [4] = biological target: Mitogen-activated protein kinase kinase kinase 1 (Homo sapiens, UniProt Q13233); assay: Selectivity interaction (KinomeScan (DiscoverX)) EUB0000595a MAP3K1; conditions: at 10 µM
# Chain of Mitogen-activated protein kinase kinase kinase 1 (Q13233 whole entry): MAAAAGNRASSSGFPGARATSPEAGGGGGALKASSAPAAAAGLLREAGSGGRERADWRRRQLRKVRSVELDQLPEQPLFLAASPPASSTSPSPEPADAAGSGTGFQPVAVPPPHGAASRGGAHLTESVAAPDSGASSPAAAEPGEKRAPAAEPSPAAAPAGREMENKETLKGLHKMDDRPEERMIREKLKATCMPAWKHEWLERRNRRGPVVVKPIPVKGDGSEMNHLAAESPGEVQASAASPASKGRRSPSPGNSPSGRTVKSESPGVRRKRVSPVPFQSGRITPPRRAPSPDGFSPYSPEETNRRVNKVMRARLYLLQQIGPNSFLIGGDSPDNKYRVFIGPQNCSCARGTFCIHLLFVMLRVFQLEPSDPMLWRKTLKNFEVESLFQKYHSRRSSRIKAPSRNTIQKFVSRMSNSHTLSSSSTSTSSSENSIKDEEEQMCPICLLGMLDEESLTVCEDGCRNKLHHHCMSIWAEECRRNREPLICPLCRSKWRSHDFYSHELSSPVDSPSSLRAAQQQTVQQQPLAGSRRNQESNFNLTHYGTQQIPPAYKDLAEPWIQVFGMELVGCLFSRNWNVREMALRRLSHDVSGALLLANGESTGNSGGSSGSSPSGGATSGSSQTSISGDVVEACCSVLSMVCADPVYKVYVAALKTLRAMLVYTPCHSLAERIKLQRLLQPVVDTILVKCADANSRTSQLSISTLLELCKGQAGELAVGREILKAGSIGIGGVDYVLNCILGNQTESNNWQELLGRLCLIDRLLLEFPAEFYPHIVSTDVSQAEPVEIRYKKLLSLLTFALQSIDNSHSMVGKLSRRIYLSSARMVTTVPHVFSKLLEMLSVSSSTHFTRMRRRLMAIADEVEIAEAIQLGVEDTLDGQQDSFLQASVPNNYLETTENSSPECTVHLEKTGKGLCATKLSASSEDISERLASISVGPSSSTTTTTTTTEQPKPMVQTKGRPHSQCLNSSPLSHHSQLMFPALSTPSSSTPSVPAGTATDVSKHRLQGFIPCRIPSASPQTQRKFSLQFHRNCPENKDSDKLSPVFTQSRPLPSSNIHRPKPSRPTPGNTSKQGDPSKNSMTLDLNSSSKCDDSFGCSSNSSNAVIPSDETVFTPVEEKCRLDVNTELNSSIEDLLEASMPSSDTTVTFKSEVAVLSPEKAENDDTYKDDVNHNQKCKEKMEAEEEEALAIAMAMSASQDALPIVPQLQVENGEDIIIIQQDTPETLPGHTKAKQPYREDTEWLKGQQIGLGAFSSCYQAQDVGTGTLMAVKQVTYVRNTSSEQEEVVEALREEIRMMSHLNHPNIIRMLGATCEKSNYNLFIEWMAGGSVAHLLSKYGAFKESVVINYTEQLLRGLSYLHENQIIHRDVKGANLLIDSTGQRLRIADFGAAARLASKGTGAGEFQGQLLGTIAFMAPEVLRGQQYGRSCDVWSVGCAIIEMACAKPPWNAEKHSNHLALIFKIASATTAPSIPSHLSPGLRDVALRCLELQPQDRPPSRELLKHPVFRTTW
# [5] = biological target: Ribosomal protein S6 kinase alpha-2 (Homo sapiens) (UniProt Q15349); assay: Selectivity interaction (KinomeScan (DiscoverX)) EUB0000045b RPS6KA2; conditions: at 1 µM
# Chain of Ribosomal protein S6 kinase alpha-2 (Homo sapiens) (Q15349 whole entry): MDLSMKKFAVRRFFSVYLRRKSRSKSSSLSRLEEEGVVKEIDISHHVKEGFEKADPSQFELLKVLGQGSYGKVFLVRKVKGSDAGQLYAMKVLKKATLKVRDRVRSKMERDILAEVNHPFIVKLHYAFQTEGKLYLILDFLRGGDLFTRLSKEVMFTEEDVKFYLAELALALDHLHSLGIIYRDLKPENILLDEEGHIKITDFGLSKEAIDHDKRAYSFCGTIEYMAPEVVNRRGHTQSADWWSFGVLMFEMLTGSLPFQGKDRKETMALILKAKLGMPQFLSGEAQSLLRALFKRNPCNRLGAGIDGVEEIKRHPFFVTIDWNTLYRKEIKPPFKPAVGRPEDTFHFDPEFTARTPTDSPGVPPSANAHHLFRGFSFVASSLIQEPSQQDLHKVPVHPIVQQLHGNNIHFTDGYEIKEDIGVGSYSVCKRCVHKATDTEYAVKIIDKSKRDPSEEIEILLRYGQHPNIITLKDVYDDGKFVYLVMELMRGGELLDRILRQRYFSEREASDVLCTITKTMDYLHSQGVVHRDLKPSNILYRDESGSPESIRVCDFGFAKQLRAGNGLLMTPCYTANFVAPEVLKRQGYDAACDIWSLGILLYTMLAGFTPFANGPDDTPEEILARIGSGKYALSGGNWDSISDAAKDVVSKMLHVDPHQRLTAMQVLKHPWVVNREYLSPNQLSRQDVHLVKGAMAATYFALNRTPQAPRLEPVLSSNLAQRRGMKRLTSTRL
# [6] = biological target: Cyclin-dependent kinase 17 (Homo sapiens) (UniProt Q00537); assay: Selectivity interaction (KinomeScan (DiscoverX)) EUB0000045b CDK17
# Chain of Cyclin-dependent kinase 17 (Homo sapiens) (Q00537 whole entry, looked up): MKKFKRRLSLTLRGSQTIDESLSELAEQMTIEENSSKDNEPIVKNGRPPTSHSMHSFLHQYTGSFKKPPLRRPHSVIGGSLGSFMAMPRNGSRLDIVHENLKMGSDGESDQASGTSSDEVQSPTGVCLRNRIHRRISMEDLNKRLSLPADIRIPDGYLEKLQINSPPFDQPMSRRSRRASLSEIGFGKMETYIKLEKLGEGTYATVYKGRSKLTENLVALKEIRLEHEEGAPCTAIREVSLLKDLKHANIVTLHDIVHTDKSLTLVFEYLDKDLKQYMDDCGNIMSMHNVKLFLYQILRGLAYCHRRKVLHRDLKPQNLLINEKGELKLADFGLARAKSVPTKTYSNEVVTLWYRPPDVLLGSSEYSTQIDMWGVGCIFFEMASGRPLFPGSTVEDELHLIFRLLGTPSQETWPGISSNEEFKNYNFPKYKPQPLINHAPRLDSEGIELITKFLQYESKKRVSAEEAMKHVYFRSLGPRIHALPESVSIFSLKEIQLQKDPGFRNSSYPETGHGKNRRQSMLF
# [7] = biological target: T2, Dual specificity mitogen-activated protein kinase kinase 6 (Homo sapiens) (UniProt P52564); assay: Selectivity interaction (ActivX KiNativ screen (ex vivo kinase selectivity in human PBMCs)) EUB0001619a MAP2K6; assay type: cell-based; conditions: PBMC, at 1 µM
# T2 sequence (whole entry): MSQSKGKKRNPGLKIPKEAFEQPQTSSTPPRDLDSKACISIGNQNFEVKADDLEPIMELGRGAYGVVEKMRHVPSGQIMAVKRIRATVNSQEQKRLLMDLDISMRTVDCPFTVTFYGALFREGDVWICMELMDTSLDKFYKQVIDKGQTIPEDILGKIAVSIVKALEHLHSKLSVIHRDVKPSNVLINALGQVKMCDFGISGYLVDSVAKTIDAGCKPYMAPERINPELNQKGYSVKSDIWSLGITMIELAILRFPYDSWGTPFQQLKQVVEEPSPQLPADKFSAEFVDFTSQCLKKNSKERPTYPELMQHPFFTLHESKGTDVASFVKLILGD
# [8] = biological target: T3, Serine/threonine-protein kinase Sgk3 (Homo sapiens) (UniProt Q96BR1); assay: Selectivity interaction (ActivX KiNativ screen (ex vivo kinase selectivity in human PBMCs)) EUB0001619a SGK3; assay type: cell-based; conditions: PBMC, at 1 µM
# T3 sequence (whole entry): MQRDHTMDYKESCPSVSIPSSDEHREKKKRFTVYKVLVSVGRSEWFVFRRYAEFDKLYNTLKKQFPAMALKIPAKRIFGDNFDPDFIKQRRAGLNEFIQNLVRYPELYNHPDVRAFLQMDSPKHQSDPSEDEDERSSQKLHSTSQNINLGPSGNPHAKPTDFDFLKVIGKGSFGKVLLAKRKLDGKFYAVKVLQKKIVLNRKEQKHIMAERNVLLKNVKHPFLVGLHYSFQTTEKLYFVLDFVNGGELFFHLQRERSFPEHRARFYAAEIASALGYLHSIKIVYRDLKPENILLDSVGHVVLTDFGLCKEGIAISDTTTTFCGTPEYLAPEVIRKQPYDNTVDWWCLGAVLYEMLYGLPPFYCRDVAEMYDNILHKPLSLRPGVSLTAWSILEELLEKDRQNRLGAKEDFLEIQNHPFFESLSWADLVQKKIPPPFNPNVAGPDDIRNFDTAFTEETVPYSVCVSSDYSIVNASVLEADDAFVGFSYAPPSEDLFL
# Chain of SRSF protein kinase 3 (Homo sapiens) (Q9UPE1 whole entry): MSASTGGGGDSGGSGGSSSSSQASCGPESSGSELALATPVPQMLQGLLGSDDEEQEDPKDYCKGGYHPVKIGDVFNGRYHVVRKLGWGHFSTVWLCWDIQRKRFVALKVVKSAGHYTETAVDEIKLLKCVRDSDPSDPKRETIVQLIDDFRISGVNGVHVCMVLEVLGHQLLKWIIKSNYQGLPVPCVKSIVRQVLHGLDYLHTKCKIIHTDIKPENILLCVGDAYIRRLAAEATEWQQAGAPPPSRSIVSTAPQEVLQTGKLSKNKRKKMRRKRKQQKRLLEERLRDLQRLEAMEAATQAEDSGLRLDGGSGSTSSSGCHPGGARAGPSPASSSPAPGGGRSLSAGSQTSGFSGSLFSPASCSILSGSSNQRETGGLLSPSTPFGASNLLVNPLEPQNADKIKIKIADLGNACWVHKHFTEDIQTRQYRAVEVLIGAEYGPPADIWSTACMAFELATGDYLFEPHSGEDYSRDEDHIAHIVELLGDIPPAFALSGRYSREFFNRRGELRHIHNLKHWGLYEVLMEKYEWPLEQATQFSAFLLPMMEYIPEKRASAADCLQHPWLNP
# Chain of Casein kinase II subunit alpha (P68400 whole entry, looked up): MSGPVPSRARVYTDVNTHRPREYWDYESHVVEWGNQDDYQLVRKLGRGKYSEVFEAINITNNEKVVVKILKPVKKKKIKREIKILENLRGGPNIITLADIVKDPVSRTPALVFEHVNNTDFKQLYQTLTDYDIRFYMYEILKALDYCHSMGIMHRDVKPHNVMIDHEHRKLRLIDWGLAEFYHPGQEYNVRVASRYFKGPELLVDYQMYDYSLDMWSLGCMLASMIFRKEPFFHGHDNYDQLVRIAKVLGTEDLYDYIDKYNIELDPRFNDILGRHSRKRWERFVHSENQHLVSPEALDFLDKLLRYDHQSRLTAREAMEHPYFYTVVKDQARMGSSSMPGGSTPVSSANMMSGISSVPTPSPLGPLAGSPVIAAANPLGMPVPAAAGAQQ
structure (smiles),measurement,setting,value
C=CC(=O)Nc1cccc(C(=O)Nc2ccc(Nc3cc(-c4[nH]c(SC)nc4C)ccn3)cc2)c1,% of control,[1]; at 1 µM,97%
same,% of control,[1]; at 5 µM,101%
O=C(NOC[C@H](O)CO)c1ccc(F)c(F)c1Nc1ccc(I)cc1F,% of control,[2],77%
CC[C@@H]1[C@H](F)C(=O)N[C@@H]1COc1nccc2cc(C(N)=O)c(OC)cc12 [ZIMLOVISERTIB],% of inhibition,[3],-5.9%
COCC(=O)NC/C=C/c1ccc2ncnc(Nc3ccc(Oc4ccc(C)nc4)c(C)c3)c2c1 [CP-724714],% of control,[4],100%
C=CC(=O)Nc1cc(-n2c(=O)ccc3cnc4ccc(-c5ccc(NS(C)(=O)=O)cc5)cc4c32)ccc1C,% of control,[5],90%
same,% of control,[6]; at 1 µM,100%
same,% of control,[6]; at 10 µM,95%
N#Cc1cccc(-c2c[nH]c3ncnc(N4CCOCC4)c23)c1,% of inhibition,[7],14%
same,% of inhibition,[8],-1%
